Data on 2 molecules can be found in patent publication US20070179125A1, “Aminopyrimidines useful as kinase inhibitors” (priority 2005, published 2007).

Assay type in all cases: biochemical
One test deals with T1, human Itk kinase (Homo sapiens, UniProt Q08881).
T1 sequence (Q08881 1-620): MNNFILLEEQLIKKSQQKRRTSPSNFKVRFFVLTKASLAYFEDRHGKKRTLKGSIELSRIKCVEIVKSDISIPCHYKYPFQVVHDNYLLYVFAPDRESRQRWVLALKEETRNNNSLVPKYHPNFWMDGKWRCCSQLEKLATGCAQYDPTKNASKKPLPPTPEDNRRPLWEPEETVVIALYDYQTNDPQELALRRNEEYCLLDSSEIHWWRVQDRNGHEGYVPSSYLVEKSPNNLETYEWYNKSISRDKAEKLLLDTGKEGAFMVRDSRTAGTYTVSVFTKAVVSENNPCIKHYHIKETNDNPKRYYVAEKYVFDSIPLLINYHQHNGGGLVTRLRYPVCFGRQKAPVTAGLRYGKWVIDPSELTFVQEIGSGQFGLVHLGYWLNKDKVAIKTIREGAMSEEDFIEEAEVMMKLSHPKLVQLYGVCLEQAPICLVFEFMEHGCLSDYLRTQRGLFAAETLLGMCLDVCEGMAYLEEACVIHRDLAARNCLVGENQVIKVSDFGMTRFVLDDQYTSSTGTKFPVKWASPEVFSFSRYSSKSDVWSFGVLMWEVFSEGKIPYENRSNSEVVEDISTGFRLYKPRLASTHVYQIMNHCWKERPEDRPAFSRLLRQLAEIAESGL
Put plainly: Itk inhibition assay, radioactivity-based. The conditions noted are these: Ki(app); 7.5 μM ATP, 3 μM SAM68 peptide, 50 nM Itk, 25° C. Here is the method: The compounds of the present invention were evaluated as inhibitors of human Itk kinase using a radioactivity-based assay.
Assays were carried out in a mixture of 20 mM MOPS (pH 7.0), 10 mM MgCl2, 0.1% BSA and 1 mM DTT. Final substrate concentrations in the assay were 7.5 μM [γ-^33P]ATP (400 μCi ^33P ATP/μmol ATP, Amersham Pharmacia Biotech/Sigma Chemicals) and 3 μM peptide (SAM68 protein Δ332-443). Assays were carried out at 25° C. in the presence of 50 nM Itk. An assay stock buffer solution was prepared containing all of the reagents listed above, with the exception of ATP and the test compound of interest. 50 μL of the stock solution was placed in a 96 well plate followed by addition of 2 μL of DMSO stock containing serial dilutions of the test compound (typically starting from a final concentration of 50 μM with 2-fold serial dilutions) in duplicate (final DMSO concentration 2%). The plate was pre-incubated for 10 minutes at 25° C. and the reaction initiated by addition of 50 μL [γ-^33P]ATP (final concentration 7.5 μM).
The reaction was stopped after 10 minutes by the addition of 100 μL 0.2M phosphoric acid+0.01% TWEEN 20. […]
Ki(app) data were calculated from non-linear regression analysis of the initial rate data using the Prism software package (GraphPad Prism version 3.0cx for Macintosh, GraphPad Software, San Diego Calif., USA).

In another test the target is JAK-2 enzyme (Homo sapiens, UniProt O60674). Nature of the test: JAK2 inhibition assay. The conditions noted are these: 12 μM ATP, 15 μM poly(Glu)4Tyr. Here is the method: (§1) Compounds were screened for their ability to inhibit JAK using the assay shown below. Reactions were carried out in a kinase buffer containing 100 mM HEPES (pH 7.4), 1 mM DTT, 10 mM MgCl2, 25 mM NaCl, and 0.01% BSA.
Chain of JAK-2 enzyme (O60674 whole entry, species assumed): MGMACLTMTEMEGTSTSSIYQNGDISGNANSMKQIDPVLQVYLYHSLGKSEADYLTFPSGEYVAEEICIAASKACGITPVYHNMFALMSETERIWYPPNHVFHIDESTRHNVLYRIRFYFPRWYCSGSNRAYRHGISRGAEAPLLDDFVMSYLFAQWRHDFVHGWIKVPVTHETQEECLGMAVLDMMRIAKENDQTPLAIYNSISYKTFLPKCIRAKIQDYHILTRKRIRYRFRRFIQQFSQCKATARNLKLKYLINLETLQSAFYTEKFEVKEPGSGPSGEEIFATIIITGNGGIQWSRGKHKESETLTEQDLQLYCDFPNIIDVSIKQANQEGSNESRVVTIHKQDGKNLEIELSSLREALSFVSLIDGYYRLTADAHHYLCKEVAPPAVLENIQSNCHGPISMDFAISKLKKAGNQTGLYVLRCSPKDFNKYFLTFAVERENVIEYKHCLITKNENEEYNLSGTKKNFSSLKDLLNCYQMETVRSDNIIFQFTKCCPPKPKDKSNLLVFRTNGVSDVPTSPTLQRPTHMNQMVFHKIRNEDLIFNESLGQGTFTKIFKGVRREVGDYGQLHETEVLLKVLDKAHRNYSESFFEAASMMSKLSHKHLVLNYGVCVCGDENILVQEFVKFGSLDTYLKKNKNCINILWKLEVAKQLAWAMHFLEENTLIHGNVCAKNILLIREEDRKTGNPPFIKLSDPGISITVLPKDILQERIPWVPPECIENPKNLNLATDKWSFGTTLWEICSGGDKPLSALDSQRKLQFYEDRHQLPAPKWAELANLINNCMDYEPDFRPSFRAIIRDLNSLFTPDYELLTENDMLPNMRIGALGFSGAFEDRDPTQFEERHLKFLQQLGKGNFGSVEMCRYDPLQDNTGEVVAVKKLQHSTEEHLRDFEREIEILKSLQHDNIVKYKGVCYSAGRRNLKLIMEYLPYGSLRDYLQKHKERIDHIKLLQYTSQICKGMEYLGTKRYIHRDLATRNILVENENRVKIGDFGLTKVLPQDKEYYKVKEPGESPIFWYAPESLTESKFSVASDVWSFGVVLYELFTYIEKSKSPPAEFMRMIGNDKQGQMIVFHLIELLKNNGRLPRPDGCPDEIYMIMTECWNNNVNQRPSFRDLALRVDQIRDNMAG
(§2) Substrate concentrations in the assay were 5 μM ATP (200 uCi/μmole ATP) and 1 μM poly(Glu)4Tyr. Reactions were carried out at 25° C. and 1 nM JAK3.
(§3) To each well of a 96 well polycarbonate plate was added 1.5 μl of a candidate JAK3 inhibitor along with 50 μl of kinase buffer containing 2 μM poly(Glu)4Tyr and 10 μM ATP. This was then mixed and 50 μl of kinase buffer containing 2 nM JAK3 enzyme was added to start the reaction. After 20 minutes at room temperature (25 C), the reaction was stopped with 50 μl of 20% trichloroacetic acid (TCA) that also contained 0.4 mM ATP. The entire contents of each well were then transferred to a 96 well glass fiber filter plate using a TomTek Cell Harvester. After washing, 60 μl of scintillation fluid was added and ^33P incorporation detected on a Perkin Elmer TopCount.
The assays are as described above in Example 3 except that JAK-2 enzyme is used, the final poly(Glu)4Tyr concentration is 15 μM, and final ATP concentration is 12 μM.

For a further test, the target named is T2, Aurora-2 (Aurora A) (Homo sapiens, UniProt O14965).
T2 sequence (O14965 1-403): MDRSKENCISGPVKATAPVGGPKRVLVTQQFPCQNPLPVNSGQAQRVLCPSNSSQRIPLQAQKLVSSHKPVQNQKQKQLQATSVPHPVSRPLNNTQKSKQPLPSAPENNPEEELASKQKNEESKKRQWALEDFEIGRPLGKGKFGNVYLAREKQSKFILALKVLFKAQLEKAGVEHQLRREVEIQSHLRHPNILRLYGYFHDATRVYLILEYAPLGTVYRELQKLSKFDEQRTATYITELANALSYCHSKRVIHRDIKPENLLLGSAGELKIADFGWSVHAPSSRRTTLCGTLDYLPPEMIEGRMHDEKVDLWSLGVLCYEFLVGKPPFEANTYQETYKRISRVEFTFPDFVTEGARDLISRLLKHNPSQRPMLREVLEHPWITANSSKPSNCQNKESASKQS
Put plainly: Aurora-2 (Aurora A) inhibition assay, coupled enzyme. To be noted: 400 μM ATP, 570 μM Kemptide, 40 nM Aurora-2, 30° C. As to the method: Compounds were screened for their ability to inhibit Aurora-2 using a standard coupled enzyme assay (Fox et al., Protein Sci., (1998) 7, 2249). Assays were carried out in a mixture of 100 mM Hepes (pH7.5), 10 mM MgCl2, 1 mM DTT, 25 mM NaCl, 2.5 mM phosphoenolpyruvate, 300 μM NADH, 30 μg/ml pyruvate kinase and 10 μg/ml lactate dehydrogenase. Final substrate concentrations in the assay are 400 μM ATP (Sigma Chemicals) and 570 μM peptide (Kemptide, American Peptide, Sunnyvale, Calif.). Assays were carried out at 30° C. and in the presence of 40 nM Aurora-2.
An assay stock buffer solution was prepared containing all of the reagents listed above, with the exception of Aurora-2 and the test compound of interest. 55 μl of the stock solution was placed in a 96 well plate followed by addition of 2 μl of DMSO stock containing serial dilutions of the test compound (typically starting from a final concentration of 7.5 μM). The plate was preincubated for 10 minutes at 30° C. and the reaction initiated by addition of 10 μl of Aurora-2. Initial reaction rates were determined with a Molecular Devices SpectraMax Plus plate reader over a 10 minute time course. IC50 and Ki data were calculated from non-linear regression analysis using the Prism software package (GraphPad Prism version 3.0cx for Macintosh, GraphPad Software, San Diego Calif., USA).

The next test concerns the target Aurora-1 (Aurora B) (Homo sapiens, UniProt Q96GD4). Nature of the test: Aurora-1 (Aurora B) inhibition assay (radiometric). To be noted: 800 μM ATP, Kemptide, 25° C. As to the method: An assay buffer solution was prepared which consisted of 25 mM HEPES (pH 7.5), 10 mM MgCl2, 0.1% BSA and 10% glycerol. A 22 nM Aurora-B solution, also containing 1.7 mM DTT and 1.5 mM Kemptide (LRRASLG), was prepared in assay buffer. To 22 μL of the Aurora-B solution, in a 96-well plate, was added 2 μl of a compound stock solution in DMSO and the mixture allowed to equilibrate for 10 minutes at 25° C. The enzyme reaction was initiated by the addition of 16 μl stock [γ-^33P]-ATP solution (˜20 nCi/μL) prepared in assay buffer, to a final assay concentration of 800 μM. The reaction was stopped after 3 hours by the addition of 16 μL 500 mM phosphoric acid and the levels of ^33P incorporation into the peptide substrate were determined by the following method.
A phosphocellulose 96-well plate (Millipore, Cat no. MAPHNOB50) was pre-treated with 100 μL of a 100 mM phosphoric acid prior to the addition of the enzyme reaction mixture (40 μL). […] Levels of non-enzyme catalyzed background radioactivity were determined by adding 16 μL of the 500 mM phosphoric acid to control wells, containing all assay components (which acts to denature the enzyme), prior to the addition of the [γ-^33P]-ATP solution. Levels of enzyme catalyzed ^33P incorporation were calculated by subtracting mean background counts from those measured at each inhibitor concentration. […]

The target in the next test is T3, JAK3 (Homo sapiens, UniProt P52333).
T3 sequence (P52333 1-1124): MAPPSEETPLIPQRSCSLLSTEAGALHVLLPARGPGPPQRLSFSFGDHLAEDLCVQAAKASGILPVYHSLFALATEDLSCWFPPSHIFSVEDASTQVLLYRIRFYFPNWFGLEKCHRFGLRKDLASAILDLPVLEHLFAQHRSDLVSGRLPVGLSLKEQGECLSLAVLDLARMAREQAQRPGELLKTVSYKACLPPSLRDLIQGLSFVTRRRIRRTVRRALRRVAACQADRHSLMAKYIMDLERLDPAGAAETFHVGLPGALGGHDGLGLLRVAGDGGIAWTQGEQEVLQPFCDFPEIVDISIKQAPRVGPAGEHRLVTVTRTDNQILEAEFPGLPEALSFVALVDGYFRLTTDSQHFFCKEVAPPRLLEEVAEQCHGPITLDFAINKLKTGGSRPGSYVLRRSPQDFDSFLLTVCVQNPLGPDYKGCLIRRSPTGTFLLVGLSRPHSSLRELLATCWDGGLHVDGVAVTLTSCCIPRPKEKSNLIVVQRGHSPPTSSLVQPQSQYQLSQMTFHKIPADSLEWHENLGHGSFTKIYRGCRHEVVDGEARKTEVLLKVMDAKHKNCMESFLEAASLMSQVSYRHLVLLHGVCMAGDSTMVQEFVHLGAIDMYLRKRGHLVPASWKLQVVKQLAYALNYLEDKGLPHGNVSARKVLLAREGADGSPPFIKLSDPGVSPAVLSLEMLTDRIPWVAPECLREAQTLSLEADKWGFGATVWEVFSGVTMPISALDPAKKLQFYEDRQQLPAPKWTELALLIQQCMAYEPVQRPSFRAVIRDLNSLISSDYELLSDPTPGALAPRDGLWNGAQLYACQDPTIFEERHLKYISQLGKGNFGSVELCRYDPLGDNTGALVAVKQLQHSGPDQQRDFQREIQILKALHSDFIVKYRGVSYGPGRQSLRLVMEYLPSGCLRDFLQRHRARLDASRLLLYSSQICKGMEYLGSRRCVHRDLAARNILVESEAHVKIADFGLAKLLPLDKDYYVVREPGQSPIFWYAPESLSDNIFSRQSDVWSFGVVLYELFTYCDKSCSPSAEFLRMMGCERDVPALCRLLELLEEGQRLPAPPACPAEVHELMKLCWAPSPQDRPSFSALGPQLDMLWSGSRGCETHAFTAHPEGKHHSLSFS
Put plainly: JAK3 inhibition assay. The conditions noted are these: 5 μM ATP, 1 μM poly(Glu)4Tyr, 1 nM JAK3, 25° C. Here is the method:
as §1, §2, §3

pKi: −log10 of the molar value.

Chain of Aurora-1 (Aurora B) (Q96GD4 whole entry, species assumed): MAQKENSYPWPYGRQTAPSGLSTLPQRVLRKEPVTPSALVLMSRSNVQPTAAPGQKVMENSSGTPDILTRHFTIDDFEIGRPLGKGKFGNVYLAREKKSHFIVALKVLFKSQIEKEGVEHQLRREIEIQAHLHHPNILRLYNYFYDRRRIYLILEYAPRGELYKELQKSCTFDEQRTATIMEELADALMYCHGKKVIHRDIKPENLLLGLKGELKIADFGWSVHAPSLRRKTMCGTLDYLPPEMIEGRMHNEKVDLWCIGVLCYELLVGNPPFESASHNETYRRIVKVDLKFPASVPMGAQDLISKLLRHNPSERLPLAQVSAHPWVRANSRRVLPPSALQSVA

Consider `Cc1cc(Nc2cc(N3CCC3)nc(O[C@H]3CCN(C(=O)OC(C)(C)C)C3)n2)[nH]n1` [Compound I-1, (S)-3-[4-Azetidin-1-yl-6-(5-methyl-2H-pyrazol-3-ylamino)-pyrimidin-2-yloxy]-pyrrolidine-1-carboxylic acid tert-butyl ester], for which the results for the pKi on human Itk kinase, on JAK-2 enzyme and at Aurora-2 (Aurora A) were more than 6.00, more than 6.60 and more than 7.30, respectively.

Regarding `Cc1cc(Nc2cc(N3CC(F)(C4CC4)C3)nc(O[C@H]3CCN(C(=O)c4cc(Cl)ccc4F)C3)n2)[nH]n1` [Compound I-3, (S)-(5-chloro-2-fluorophenyl)(3-(4-(3-cyclopropyl-3-fluoroazetidin-1-yl)-6-(3-methyl-1H-pyrazol-5-ylamino)pyrimidin-2-yloxy)pyrrolidin-1-yl)methanone], the results for the pKi on Aurora-1 (Aurora B) and at JAK3 were more than 7.60 and more than 6.60, respectively.

In general, pKi refers to −log10 of the Ki, conventionally taken in molar units.
